Test results: patent publication US8080237B2, “Use of tellurium compounds for protection from ultra-violet radiation” (priority 2005, dated 2011)
Like-named read-outs stand apart in the source and are kept apart here.

Tests used:
rats = test: Toxicity tests (LD50) in rats; type: in vivo; settings: intravenous and intramuscular administration
interferon (IFN) [1] = settings: mice; J. Natl. Cancer Inst. 88(18):1276-84, 1996; cited from earlier work
IL-10 = settings: Cell Immunol. 176(2):180-5, 1997; J. Natl. Cancer Inst. 88(18):1276-84, 1996; cited from earlier work
interferon (IFN) [2] = settings: humans; Nat. Immun. Cell Growth Regul. 9(3):182-90, 1990; Immunology 70(4):473-7, 1990; cited from earlier work
[3] = system: IL-10 gene expression in epidermal cells; test: RT-PCR for IL-10 transcripts in epidermal cells from suction blisters after in vivo UVB irradiation of volunteers' forearms; set-up: species or system human; settings: 3% AS101 in petroleum jelly U.S.P., topical on forearm before UVB; blisters 24 h after UVB exposure; compared with UVB alone; G3PDH as control transcript
Description: In normal volunteers, suction blisters were induced by vacuum and heat on normal skin, or on UVB-irradiated skin of volar forearms 24 h after exposure. Single cell suspensions of epidermal cells were prepared by limited trypsinization of the blister roof. Briefly, epidermal sheets were washed in PBS (Biofluids. Roekville. MD) and floated in 0.5% trypsin (United Stares Biochemical Corp. Cleveland. OH) for 45 min al 37° C., transferred to HBSS (Biofluids) containing 0.05 DNase (Sigma Chemical Co. SI. Louis. MO) and 10% heat-inactivated pooled human AB^+ serum (Sigma Chemical Co.) and disaggregated by repeated aspirations and expulsions through a syringe. […]
UVB irradiation in vivo was performed with 4 FS20 fluorescent lamps (Sylvania. Springfield. Va.) that emit wavelengths between 280 and 320 nm with a peak at 313 nm. Light intensity was determined using an IL-770 Germicidal-Erythemal radiometer (international Light Inc. Newburyport. Me.) equipped with a sensor and a 313-nm filter. […]
The frozen pellets of epidermal cells were dissolved by repeated pipetting 800 μl of lysis bufer and transferred to RNase-free Eppendorf tubes containing 500 μg of superparamagnetic polystyrene Dynaheads Oligo(dT)25 (Dynal. Great Neck. N.Y.). […] The concentration of mRNA was measured on a Beckman DU-64 spectrophotometer employing a 5 μl Ultra microcell. […]

Cl[TeH]1(Cl)(Cl)OCCO1.N [AS101, ammonium trichloro(dioxyethylene-O,O′)tellurate]
LD50 relative to the immunologically effective dose (rats): 500-1000 folds | activation of interferon (IFN) (interferon (IFN) [1]): potent activator of interferon | effect on IL-10 at the m-RNA level (IL-10): inhibit IL-10 at the m-RNA level | activation of interferon (IFN) (interferon (IFN) [2]): potent activator of interferon | IL-10 transcription in epidermal cells after UVB (RT-PCR, FIG. 1) [3]: significant decrease of IL-10
